Entries after “also recorded” stand apart in the source; their conditions may differ.
Key:
Assay type in all cases: physicochemical
[1] = Dynamic vapor sorption (DVS) moisture sorption/desorption; conditions: for Hygroscopicity (description): DVS 5-95% RH
Procedure: Moisture sorption/desorption data were collected on a Surface Measurement System DVS Intrinsic instrument. The samples were not dried prior to analysis. Sorption and desorption data were collected over a range from 5% to 95% RH in 10% RH increments under a nitrogen purge. The equilibrium criteria used for the analyses were 0.001 dm/dt weight change in 5 minutes with a minimum step time of 30 minutes and maximum equilibration time of 180 minutes with a 3-minute data logging interval. Data were not corrected for the initial moisture content of the samples.

[2] = Relative humidity stressing (~90% RH), solid form by XRPD; conditions: RT
Description: Select materials were transferred to a vial, which was then uncapped and placed inside ajar containing a saturated aqueous barium chloride solution for ˜90% RH in the headspace (See, Nyqvist, H. E., Saturated Salt Solutions for Maintaining Specified Relative Humidities, Int. J. Pharm. Technol. Prod. Manuf 1983, 4, 47-48, which is incorporated by reference in its entirety). Jars were stored at the stated temperatures.
XRPD patterns were collected with a PANalytical X'Pert PRO MPD or a PANalytical Empyrean diffractometer using an incident beam of Cu radiation produced using a long, fine-focus source. An elliptically graded multilayer mirror was used to focus Cu Kα X-rays through the specimen and onto the detector. Prior to the analysis, a silicon specimen (NIST SRM 640e) was analyzed to verify the observed position of the Si 111 peak is consistent with the NIST-certified position. A specimen of the sample was sandwiched between 3-μm-thick films and analyzed in transmission geometry. A beam-stop, short antiscatter extension, and antiscatter knife edge were used to minimize the background generated by air. Soller slits for the incident and diffracted beams were used to minimize broadening and asymmetry from axial divergence. Diffraction patterns were collected using a scanning position-sensitive detector (X'Celerator) located 240 mm from the specimen and Data Collector software v. […]

[3] = Stable form screen slurries, resulting solid form by XRPD
Description: Early in the study, slurries were set up for the stable form screen at RT (Table 5, infra). In these experiments, solids of the as-received mixture of Form A+minor Material B were combined with given solvent systems at a solid loading that allowed for undissolved solids to remain, and the mixtures were stirred at ambient conditions. […] Two slurries were selected for isolation at that time to confirm the solid form and chemical composition, while the remaining slurries were covered with foil as a precaution. The slurry in THF, which was observed as a green suspension (darker than many of the other slurries), caused conversion to a new crystalline form, designated as Form C.
Additional slurries were set up at elevated temperatures (˜60° C. and ˜80° C.) and sub-ambient temperatures (2 to 8° C.) as well. […]
XRPD patterns were collected with a PANalytical X'Pert PRO MPD or a PANalytical Empyrean diffractometer using an incident beam of Cu radiation produced using a long, fine-focus source. […] Prior to the analysis, a silicon specimen (NIST SRM 640e) was analyzed to verify the observed position of the Si 111 peak is consistent with the NIST-certified position. A specimen of the sample was sandwiched between 3-μm-thick films and analyzed in transmission geometry. […]

[4] = Slurries of Form C at high water activity, resulting form by XRPD; conditions: 1 d
Procedure: In addition to the slurries starting with Form A, two slurries of Form C were set up at high water activity conditions to study possible conversion to a hydrate (Table 9, supra). THF/water 50:50 (aw ˜1) and neat water (aw 1) were used.
Suspensions were prepared by adding enough solids to a given solvent at the stated conditions so that undissolved solids were present. The mixture was then agitated (typically by stirring or oscillation) in a sealed vial at a given temperature for an extended period of time. The solids were isolated as described above.

[5] = Heating/desolvation experiments (TGA), recovered solids by XRPD
Procedure: TG analysis was performed using a Mettler-Toledo TGA/DSC3+ analyzer. Temperature calibration was performed using calcium oxalate, indium, tin, and zinc. The sample was placed in an aluminum pan. The pan was hermetically sealed, the lid pierced, then inserted into the TG furnace. A weighed aluminum pan configured as the sample pan was placed on the reference platform. The furnace was heated under nitrogen. Samples were analyzed from 25° C. to 350° C. at 10° C./min. The TGA/DSC3+ instrument was also used for select heating/desolvation experiments, in which solids were heated as described to a given temperature, then recovered and analyzed by XRPD.

## CNc1cc(Nc2cccn(-c3ccccn3)c2=O)nc2c(C(=O)N[C@@H]3CC[C@H]3OC)cnn12 [Form C]
[1]; 5% RH
  DVS weight change at 5% RH: 0.00% weight change at 5% RH
[1]
  Hygroscopicity (description): limited hygroscopicity
[1]; after sorption/desorption cycle 5-95-5% RH
  post-DVS XRPD (solid form after DVS): consistent with Form C
[1]; desorption 95-5% RH
  DVS weight loss 95-5% RH: 1.80% weight loss 95-5% RH
[1]; sorption 5-95% RH
  DVS weight gain 5-95% RH: 1.75%
  DVS weight gain 5-95% RH, equivalent moles of water: ~0.5 mol
[2]; 11 d
  XRPD Result after RH stress: consistent with Form C; also recorded: did not readily convert to a hydrate
[3]; between 2° C. and 80° C.
  Thermodynamic stability of the form (description): likely thermodynamically stable anhydrous/non-solvated form
[4]; slurry in THF/water 50:50 (aw ~1)
  XRPD Result after slurry: Full conversion to Form A
[4]; slurry in water (aw 1)
  XRPD Result after slurry: no form conversion
[5]; heat to 270° C., cool to 40° C., heat to 200° C. (TGA)
  XRPD Result after heating: Material D

## CNc1cc(Nc2cccn(-c3ccccn3)c2=O)nc2c(C(=O)N[C@@H]3CC[C@H]3OC)cnn12 [Form A]
[1]
  Hygroscopicity (description): significant hygroscopicity
[1]; sorption 5-95% RH
  DVS weight gain 5-95% RH: 4.58%
[2]; 6 d
  XRPD Result after RH stress: still consisting of Form A
[3]; RT, hydrate Form A versus anhydrous Form C
  Critical water activity (aw) between Form A and Form C: 0.69-0.82
[5]; heat to 150° C. (TGA)
  XRPD Result after heating: Full conversion to Form C; also recorded: converted to Form C upon
